Laboratory results reported in US10106501B2, “Nuclear receptor modulators” (AbbVie Inc., priority 2015, dated 2018).
pIC50: −log10 of the molar value.

What follows are compounds tested against T1, chimeric human RORγ-Gal4 receptor (Homo sapiens, UniProt P51449) (assay: transient transactivation assay (RORγ-Gal4 luciferase reporter)). Conditions: Cos-7 cells transfected with RORγ-Gal4 and 5Gal4 pGL3 TK Luc reporter; overnight incubation; T0901317 at 10^-5 M as reference; read-out: IC50.
T1 sequence (P51449 269-508 limits assumed): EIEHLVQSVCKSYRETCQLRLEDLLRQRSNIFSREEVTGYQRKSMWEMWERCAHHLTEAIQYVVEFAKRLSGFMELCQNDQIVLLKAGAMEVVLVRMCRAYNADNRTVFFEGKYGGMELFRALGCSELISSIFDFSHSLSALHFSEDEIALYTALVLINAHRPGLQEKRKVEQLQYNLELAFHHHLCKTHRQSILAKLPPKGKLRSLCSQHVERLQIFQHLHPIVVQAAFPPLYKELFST
Type: cell-based

How did the pIC50 turn out when Cc1ccc(C(=O)N2CCOCC2)c(C)c1C(=O)c1cc2c(C)cc(C(F)(F)F)cc2n1C [Example G1, (2,6-dimethyl-3-(morpholine-4-carbonyl)phenyl)(1,4-dimethyl-6-(trifluoromethyl)-1H-indol-2-yl)methanone] was run?
The pIC50 was 6.30 to 7.00.

With Cn1c(Cc2c(Cl)ccc(C(=O)N3CCC(C(=O)O)CC3)c2Cl)cc2c(F)cc(C(F)(F)F)cc21 [FE-2] as the compound, how does the pIC50 read?
The pIC50 was > 7.00.

With Cn1c(Cc2c(C3CC3)ccc(C(=O)N3CCC(CC(=O)O)CC3)c2Cl)cc2ccc(OC(F)(F)F)cc21 [Example FL, 2-(1-(2-chloro-4-cyclopropyl-3-((1-methyl-6-(trifluoromethoxy)-1H-indol-2-yl)methyl)benzoyl)piperidin-4-yl)acetic acid] as the compound, how does the pIC50 read?
Its pIC50 is > 7.00.

How did the pIC50 turn out when COCCC1CCN(C(=O)c2ccc(Cl)c(Cc3cc4c(C)cc(C(F)(F)F)nc4n3C)c2Cl)CC1 [Example FT, (2,4-dichloro-3-((1,4-dimethyl-6-(trifluoromethyl)-1H-pyrrolo[2,3-b]pyridin-2-yl)methyl)phenyl)(4-(2-methoxyethyl)piperidin-1-yl)methanone] was run?
The pIC50 was > 7.00.

Cc1cc(C#N)cc2c1cc(Cc1c(Cl)ncc(C(=O)N3CCC(C4COC4)CC3)c1Cl)n2C [Example FC, 2-((2,4-dichloro-5-(4-(oxetan-3-yl)piperidine-1-carbonyl)pyridin-3-yl)methyl)-1,4-dimethyl-1H-indole-6-carbonitrile] was tested. Which pIC50 did it give?
The pIC50 was > 7.00.

With O=C(O)CC1CCN(C(=O)c2ccc(Cl)c(Cn3ccc4cc(C(F)(F)F)cc(F)c43)c2Cl)CC1 [EP, 2-(1-(2,4-dichloro-3-((7-fluoro-5-(trifluoromethyl)-1H-indol-1-yl)methyl)benzoyl)piperidin-4-yl)acetic acid] as the compound, how does the pIC50 read?
Its pIC50 is > 7.00.

With Cc1cc(C(F)(F)F)cc2c1nc(Cc1c(Cl)ccc(CN3CCCC(O)C3)c1Cl)n2C (stereo not drawn) [BW-5] as the compound, how does the pIC50 read?
Its pIC50 is 6.30 to 7.00.

How did the pIC50 turn out when Cc1cn(Cc2c(Cl)ccc(C(=O)N3CCC(CC(=O)O)CC3)c2Cl)c2c(C)cc(C#N)cc12 [DL, 2-(1-(2,4-dichloro-3-((5-cyano-3,7-dimethyl-1H-indol-1-yl)methyl)benzoyl)piperidin-4-yl)acetic acid] was run?
The pIC50 was > 7.00.

How did the pIC50 turn out when Cc1cc(C#N)cc2c1nc(Cc1c(Cl)ccc(C(=O)N3CCOCC3)c1Cl)n2C(C)C [CH, 2-(2,6-dichloro-3-(morpholine-4-carbonyl)benzyl)-1-isopropyl-4-methyl-1H-benzo[d]imidazole-6-carbonitrile] was run?
Its pIC50 is > 7.00.

With Cc1cc(C(F)(F)F)cc2c1cc(Cc1c(Cl)ccc(C(=O)N3CCC(C(=O)O)CC3)c1Cl)n2C [B, 1-(2,4-dichloro-3-((1,4-dimethyl-6-(trifluoromethyl)-1H-indol-2-yl)methyl)benzoyl)piperidine-4-carboxylic acid] as the compound, how does the pIC50 read?
The pIC50 was > 7.00.

With Cc1cc(C(F)(F)F)cc2c1cc(Cc1c(Cl)ccc(C(=O)N3CCC(C(=O)O)C(F)C3)c1Cl)n2C (stereo not drawn) [Example BA, 1-(2,4-dichloro-3-((1,4-dimethyl-6-(trifluoromethyl)-1H-indol-2-yl)methyl)benzoyl)-3-fluoropiperidine-4-carboxylic acid] as the compound, how does the pIC50 read?
Its pIC50 is > 7.00.

With Cc1nn(C(=O)c2c(Cl)ccc(C(=O)N3CCC(CC(=O)O)CC3)c2Cl)c2c(C)cc(C(F)(F)F)cc12 [EA, 2-(1-(2,4-dichloro-3-(3,7-dimethyl-5-(trifluoromethyl)-1H-indazole-1-carbonyl)benzoyl)piperidin-4-yl)acetic acid] as the compound, how does the pIC50 read?
The pIC50 was > 7.00.

Cc1cc(OC(F)(F)F)cc2c1c(Cc1c(Cl)ncc(C(=O)N3CCC(CC(=O)O)CC3)c1Cl)cn2C [DY, 2-[1-[4,6-dichloro-5-[[1,4-dimethyl-6-(trifluoromethoxy)-1H-indol-3-yl]methyl]pyridine-3-carbonyl]-4-piperidyl]acetic acid] was tested. Which pIC50 did it give?
Its pIC50 is > 7.00.

With Cc1cc(C(F)(F)F)cc2c1nc(Cc1c(Cl)ccc(CN3CCC(CO)CC3)c1Cl)n2C [BW-14] as the compound, how does the pIC50 read?
Its pIC50 is 6.30 to 7.00.

Cc1cc(C(F)(F)F)nn2c(C)c(Cc3c(Cl)ccc(C(=O)N4CCOCC4)c3Cl)nc12 [CZ, (2,4-dichloro-3-((3,8-dimethyl-6-(trifluoromethyl)imidazo[1,2-b]pyridazin-2-yl)methyl)phenyl)(morpholino)methanone] was tested. Which pIC50 did it give?
Its pIC50 is > 7.00.

How did the pIC50 turn out when Cn1c(Cc2c(Cl)ccc(C(=O)N3CCC(CC(=O)O)CC3)c2Cl)cc2c(F)cc(C3CC3)cc21 [Example FM, 2-(1-(2,4-dichloro-3-((6-cyclopropyl-4-fluoro-1-methyl-1H-indol-2-yl)methyl)benzoyl)piperidin-4-yl)acetic acid] was run?
Its pIC50 is > 7.00.

Cc1cc(C(F)(F)F)cc2c1cc(Cc1c(Cl)ccc(C(=O)N3CCC(C(=O)O)C3)c1Cl)n2C (stereo not drawn) [Example B-3] was tested. Which pIC50 did it give?
The pIC50 was 6.30 to 7.00.

Cc1cc(C#N)cc2c1cc(Cc1c(Cl)ccc(O[C@H]3C[C@H](C(=O)O)C3)c1Cl)n2C [Example AH, trans-3-(2,4-dichloro-3-((6-cyano-1,4-dimethyl-1H-indol-2-yl)methyl)phenoxy)cyclobutanecarboxylic acid] was tested. Which pIC50 did it give?
Its pIC50 is 6.00 to 6.30.

How did the pIC50 turn out when Cc1cc(OC(F)(F)F)cc2c1cc(Cc1c(Cl)ccc(C(=O)N3CCOCC3)c1Cl)n2C [DP-1, (2,4-dichloro-3-((1,4-dimethyl-6-(trifluoromethoxy)-1H-indol-2-yl)methyl)phenyl)(morpholino)methanone] was run?
The pIC50 was > 7.00.

Cc1cc(C(F)(F)F)cc2c1cc(Cc1c(Cl)ccc(C(=O)N3CC[C@H](C(=O)O)[C@@H](C)C3)c1Cl)n2C [Example B-26] was tested. Which pIC50 did it give?
Its pIC50 is > 7.00.

How did the pIC50 turn out when COC1CCC(NC(=O)c2ccc(Cl)c(Cc3nc4c(C)cc(C(F)(F)F)cc4n3C)c2Cl)CC1 (stereo not drawn) [BJ-22] was run?
Its pIC50 is 6.30 to 7.00.

With Cc1cc2nc(Cc3c(Cl)ccc(C(=O)N4CCOCC4)c3Cl)c(C)n2nc1C#N [DB, 2-(2,6-dichloro-3-(morpholine-4-carbonyl)benzyl)-3,7-dimethylimidazo[1,2-b]pyridazine-6-carbonitrile] as the compound, how does the pIC50 read?
Its pIC50 is 5.00 to 6.00.

With Cc1ncc(C(=O)N2CCOCC2)c(C)c1Cc1cc2c(C)cc(C(F)(F)F)cc2n1C [Example BB, (5-((1,4-dimethyl-6-(trifluoromethyl)-1H-indol-2-yl)methyl)-4,6-dimethylpyridin-3-yl)(morpholino)methanone] as the compound, how does the pIC50 read?
Its pIC50 is 6.00 to 6.30.

With Cc1cc(C#N)cc2c1cc(Cc1c(Cl)cnc(C(=O)N3CCN(C4COC4)CC3)c1Cl)n2C [BF-4] as the compound, how does the pIC50 read?
The pIC50 was 6.30 to 7.00.

CNC(=O)[C@@H]1CCCN1C(=O)c1ccc(Cl)c(Cc2nc3c(C)cc(C(F)(F)F)cc3n2C)c1Cl [BJ-1] was tested. Which pIC50 did it give?
The pIC50 was 5.00 to 6.00.

With Cc1cc(C(F)(F)F)cc2c1nc(Cc1c(Cl)ccc(C(=O)N3CCC(N(C)C)CC3)c1Cl)n2C [BJ-30] as the compound, how does the pIC50 read?
Its pIC50 is 6.30 to 7.00.

With Cc1cn(C(=O)c2c(Cl)ccc(C(=O)N3CC[C@H](C(=O)O)[C@H](C)C3)c2Cl)c2c(C)cc(C(F)(F)F)cc12 [DJ1-2] as the compound, how does the pIC50 read?
The pIC50 was > 7.00.

With Cc1cc(C(F)(F)F)cc2c1nc(C(=O)c1c(Cl)ccc(C(=O)N3CCOCC3)c1Cl)n2C [Example BS, (2,4-dichloro-3-(1,4-dimethyl-6-(trifluoromethyl)-1H-benzo[d]imidazole-2-carbonyl)phenyl)(morpholino)methanone] as the compound, how does the pIC50 read?
Its pIC50 is 6.30 to 7.00.

How did the pIC50 turn out when Cc1cn(Cc2c(Cl)ccc(C(=O)N3CCC(CC(=O)O)CC3)c2Cl)c2c(C)cc(C(F)(F)F)cc12 [DI, 2-(1-(2,4-dichloro-3-((3,7-dimethyl-5-(trifluoromethyl)-1H-indol-1-yl)methyl)benzoyl)piperidin-4-yl)acetic acid] was run?
The pIC50 was > 7.00.

How did the pIC50 turn out when Cc1cc(C(F)(F)F)nc2c1cc(C(=O)c1c(Cl)ccc(C(=O)N3CCC(C#N)CC3)c1Cl)n2C [Example FV, 1-(2,4-dichloro-3-(1,4-dimethyl-6-(trifluoromethyl)-1H-pyrrolo[2,3-b]pyridine-2-carbonyl)benzoyl)piperidine-4-carbonitrile] was run?
The pIC50 was > 7.00.
